From PMC10823475, “Design, Synthesis, and Evaluation of Inhibitors of Hedgehog Acyltransferase” (Journal of Medicinal Chemistry, 2024) come the findings set out here.

The structures appear in SMILES notation. Like-named read-outs stand apart in the source and are kept apart here.

The test system of assay [1] is palmitoylation of SHH in HEK293a SHH+ cells. Nature of the assay: Cell-based YnPal metabolic tagging assay. Conditions: for IC50: HEK293-A, HEK293a SHH+ cells. On the procedure: We first quantified the direct impact of previously reported HHAT inhibitors on palmitoylation of SHH using a cell-based metabolic tagging assay.[27],[36] In this assay, HEK293a SHH^+ cells were incubated with varying concentrations of inhibitors in the presence of alkyne palmitic acid derivative YnPal (Figure 5A).[35] Following cell lysis and bioorthogonal derivatization of palmitoylated proteins with capture reagent azide-TAMRA-biotin (AzTB)^67 using a copper catalyzed azide–alkyne cycloaddition (CuAAC) reaction, AzTB-labeled SHH is shifted to higher apparent molecular weight in sodium dodecyl sulfate polyacrylamide gel electrophoresis (SDS-PAGE), thereby enabling quantification of acylated SHH by α-SHH immunoblotting (compound 2, 17, and 22) or fluorescence imaging (compound 24, 28, and 30; SI, Figure S5–S6).[42]
HEK293a SHH^+ cells were plated at 500,000 cells/well of a 6-well plate in a volume of 3 mL/well and cultured for 24 h as described. Cells were treated with DMSO vehicle, or RUSKI compounds in DMSO (0.016–10 μM final). After 1 h, 3 μL of YnPal (20 mM DMSO stock; 20 μM final) were added and the cells were cultured for another 6 h. Subsequently, cells were washed with PBS and lysed using PBS supplemented with 1% Triton, 0.1% SDS and Complete EDTA-free protease inhibitor cocktail (Roche Diagnostics). Cells were scraped off the plates and lysates centrifuged at 13 000g for 10 min at 4 °C to remove cell debris. Protein concentration was determined using the DC Protein Assay (Bio-Rad) following the manufacturer’s procedure.
The click reaction in cell lysate was performed as previously described.[42] Briefly, 1 μL AzTB (10 mM in DMSO, 100x), 2 μL CuSO4 (50 mM in H2O, 50x), 2 μL tris(2 carboxyethyl)phosphine hydrochloride (TCEP) (50 mM in H2O, 50×), and 1 μL tris[(1-benzyl-1H-1,2,3-triazol-4-yl)methyl]amine (TBTA, 10 mM in DMSO, 100×) were mixed. Then 6 μL of this click mixture were added to 100 μL of lysate, adjusted with lysis buffer to a protein concentration of 1 mg/mL. The click reaction was shaken at RT for 1 h. Subsequently, proteins were precipitated by adding methanol, chloroform, and water at a ratio of 2:0.5:1 to remove click reagents and excess of AzTB. The mixture was centrifuged (13 000g, 5 min at 4 °C) and the methanol and water containing top layer removed. Following the addition of an excess of methanol, the precipitated proteins were isolated by centrifugation (13 000g, 10 min at 4 °C) and washed twice with methanol. The protein pellets were air-dried and redissolved in PBS containing 0.2% SDS and 0.1 mM DTT using sonication, and adjusted to a final protein concentration of 1 mg/mL.
For enrichment of YnPal-labeled proteins, 100 μg of lysate were incubated with 30 μL of prewashed (3 × 500 μL of 0.2% SDS in PBS) Dynabeads MyOne Streptavidin C1 beads (Invitrogen) for 1 h at room temperature. Beads ware washed twice with 500 μL of 0.2% SDS in PBS and boiled for 10 min in 15 μL of PBS containing SDS-PAGE sample buffer. The entire pull-down sample and 10 μg of total lysate and supernatant fractions were loaded on a 15% SDS-PAGE gel. Fluorescence was scanned using a Typhoon imager (GE Healthcare; excitation laser: 532 nm, emission filter: LPG (575–700 nm); PMT: 750 V).
Proteins were transferred to nitrocellulose membrane using a wet transfer apparatus (100 V, 1 h). Membranes were blocked with 5% BSA in TBS-T (0.1% Tween-20, 50 mM Tris, 150 mM NaCl, pH 7.5) for 1 h at room temperature, followed by overnight incubation with SHH H-160 primary antibody (Santa Cruz Biotechnology; sc-9024; 1:200 in TBS-T + 0.5% BSA) or α-tubulin primary antibody (Santa Cruz Biotechnology; sc-8035; 1:200 in TBS-T + 0.5% BSA) at 4 °C. Membranes were washed with TBS-T and further incubated at RT for 1 h with the appropriate secondary antibody (HRP conjugated goat-antimouse IgG (H+L) or goat-antirabbit IgG (H+L); Advansta; 1:10,000 in TBS-T + 0.5% BSA). […]

For assay [2], the system named is HH signaling (HEK293a SHH+ conditioned media on SHH-Light2 cells). Put plainly: Light2 dual-luciferase cell-based HH signaling assay (Firefly). On the procedure: Subsequently, the effect of analogues on HH signaling was investigated using a cellular luciferase reporter assay. Light2 cells derived from NIH3T3 cells constitutively express Renilla luciferase as an internal control for cell density alongside Firefly luciferase under the control of a HH-responsive Gli promoter.[43] HEK293a SHH^+ cells were incubated with varying inhibitor concentrations and SHH-containing conditioned media transferred to the NIH3T3-Light2 cells to mimic paracrine signaling[30],[35] (Figure 6A).
The Light2 cell-based signaling assay has been described previously.[35] Briefly, HEK293a SHH^+ cells were plated at 120,000 cells/well of a 12-well plate in a volume of 1 mL/well and cultured as described above. After 24 h, cells were washed with PBS, followed by addition of 1 mL of media containing 0.2% DMSO or varying inhibitor concentrations in DMSO (0.041–30 μM final). Additionally, SHH-Light2 cells were plated at 20,000 cells/well of a 96-well plate in 50 μL media. After another 24 h, 300 μL of the conditioned media were collected from each well of the treated HEK293a SHH^+ cells, centrifuged at 1000g for 10 min to remove detached cells and split into three wells of the SHH-Light2 cells (100 μL/well; 150 μL final volume in each well). The treated Light2 cells were cultured for another 48 h and subsequently washed with PBS. Firefly and Renilla luciferase activity was measured using the Dual-Luciferase reporter system (Promega Corporation, USA). Then 20 μL of 1× passive lysis buffer were added to each well. After 30 min at RT, 5 μL of each lysate were transferred to a white opaque 96-well plate. Then 20 μL/well of luciferase assay reagent II was added and the luminescence immediately recorded using a SpectraMax i3x plate reader (Molecular Devices LLC). Subsequently, 20 μL/well of 1× Stop&Glo substrate in Stop&Glo buffer was added and the luminescence immediately recorded for a second time. Data was evaluated using a “sigmoidal dose response (variable slope)” model in GraphPad Prism 5 (GraphPad Software, Inc.). The luminescence signal of the Firefly luciferase was normalized to the DMSO vehicle (100%) and the unconditioned media (0%) controls.

Setting [3] is: read-out: YnPal tagging IC50 (CI95).
Setting [4] is: Firefly luciferase, Light2 cells, read-out: HH signaling inhibition EC50 (CI95).

By IC50 is commonly meant the point on the concentration scale where inhibition reaches its midpoint. As for `C=CCNCC(=O)N1CCc2sccc2C1COc1ccc(Cl)cc1` (stereo not drawn) [Compound 2], the IC50 in assay [1] (setting [3]) amounted to 2350 nM.

What is called EC50 is the concentration giving half of the maximal effect. Take `CC(=O)N1CCc2sccc2C1c1ccccc1` (stereo not drawn) [Compound 5]: the EC50 in assay [2] (setting [4]) stood at 4560 nM.

Take `CCC(C)CNCC(=O)N1CCc2sccc2C1c1cccc(C)c1` (stereo not drawn) [Compound 17]: the EC50 in assay [2] (setting [4]) was determined as 1170 nM. The IC50 in assay [1] (setting [3]) amounted to 570 nM.

As to `CCC(C)CNCC(=O)N1CCc2sccc2C1c1cccc(C)n1` (stereo not drawn) [Compound 22], the EC50 in assay [2] (setting [4]) was determined as 580 nM. For the same compound, the IC50 in assay [1] (setting [3]) was 1080 nM.

Consider `Cc1cccc(C2c3ccsc3CCN2C(=O)CNCC(C)C)n1` (stereo not drawn) [Compound 24], for which the EC50 in assay [2] (setting [4]) is 1180 nM. Besides, in assay [1] (setting [3]), the IC50 is 490 nM.

Regarding `Cc1cccc([C@@H]2c3ccsc3CCN2C(=O)CNCC(C)C)n1` [Compound 28], the “effect on HH signaling” value in assay [2] was “inactive”. Moreover, in assay [2] (setting [4]), the EC50 was over 30000 nM. Further, the “inhibition of SHH tagging by YnPal” value in assay [1] is “inactive”. For the same compound, the IC50 in assay [1] (setting [3]) is over 10000 nM.

`Cc1cccc([C@H]2c3ccsc3CCN2C(=O)CNCC(C)C)n1` [Compound 30]: the EC50 in assay [2] (setting [4]) was 100 nM; in assay [2] (Light2 luciferase reporter, read-out: EC50 against HH signaling), 99 nM. Besides, the IC50 in assay [1] (read-out: IC50, cellular YnPal labeling of SHH) amounted to 76 nM.
